Measurements published in patent publication US10626112B2, “Heterocyclic sulfonamide derivative and medicine comprising same” (EA PHARMA CO., LTD., priority 2014, dated 2020).

These compounds were tested against human TRPA1 (Homo sapiens (Human), UniProt O75762) (assay: Measurement of TRPA1 antagonist activity (2): as (1), different lot of human TRPA1 expression plasmid). Details: 293T cells transfected with human TRPA1, allylisothiocyanate 20 μM stimulation, calcium fluorescence, read-out: hTRPA1 IC50.
Format: cell-based
Method: Human embryonic kidney-derived 293T cells were cultured in Dulbecco's Modified Eagle Medium containing 10% fetal bovine serum, 10 unit penicillin, and 10 μg streptomycin, plated on a petri dish having a diameter of 10 cm at 3×10^6 cells, and cultured for 24 hr in a CO2 incubator. A reduced serum medium (manufactured by Invitrogen, trade name: OPTI-MEM, 600 μL), a gene transfer reagent (manufactured by Mirus Bio, trade name: Mirus TransIT-293, 18 μL), and human TRPA1 expression plasmid (6 μg) were mixed, the total amount of the mixture was added to the cells on the petri dish to allow for gene transfer. The cells were recovered about for 8 hr later, plated on a poly-D-lysine coated 384 well black/clear bottom plate at 12,000 cells/well, and cultured overnight.
Measurement of Intracellular Calcium Increase
The 384 well plate was recovered, and the medium was removed. A calcium-bonded fluorescent indicator (manufactured by Molecular Device, trade name: Calcium4 Assay Kit, 38 μL) dissolved in assay buffer (1×HBSS, 20 mM HEPES, pH 7.2) was added, and the cells were stained in a CO2 incubator for 1 hr. The cells were taken out at room temperature, stood for not less than 15 min, a test substance (10 μL) was added by a platereader FDSS7000 (Hamamatsu Photonics K.K.) equipped with a 384ch dispenser. After 10 min, allylisothiocyanate (12 μL) was further added at a final concentration of 20 μM, and changes in the relative fluorescence intensity after addition of allylisothiocyanate were measured for 5 min.
Test Substance Preparation
The test substance was dissolved in dimethyl sulfoxide and serially diluted with an assay buffer containing 0.1% bovine serum albumin (1×HBSS, 20 mM HEPES, pH 7.2) to a 4.8-fold concentration of the evaluation concentration. Allylisothiocyanate, which is a known TRPA1 activator, was dissolved in dimethyl sulfoxide to 100 mM, and further diluted 5-fold (100 μM) of the final concentration, like the test substance.
Calculation of Antagonist Activity
Under the test substance-free conditions, the maximum variation range of the fluorescence intensity before and after allylisothiocyanate stimulation was defined to be 100% activity rate, and the variation range before and after buffer stimulation was defined as 0% activity rate. The activity rate on addition of the test substance was determined, and the numerical value obtained by subtracting the activity rate from 100 was defined to be an inhibitory rate. IC50, which is the concentration of the test substance necessary for reaching the 50% inhibitory rate, was calculated from the sigmoid approximate curve by a spreadsheet software Excel-Fit.
Measurement of TRPA1 Antagonist Activity (2)
By a method similar to that in Experimental Example 1-1 except that the lot of human […] expression plasmid is different, the TRPA1 antagonist activity of the test substance was measured.

human TRPA1, sequence (O75762 whole entry): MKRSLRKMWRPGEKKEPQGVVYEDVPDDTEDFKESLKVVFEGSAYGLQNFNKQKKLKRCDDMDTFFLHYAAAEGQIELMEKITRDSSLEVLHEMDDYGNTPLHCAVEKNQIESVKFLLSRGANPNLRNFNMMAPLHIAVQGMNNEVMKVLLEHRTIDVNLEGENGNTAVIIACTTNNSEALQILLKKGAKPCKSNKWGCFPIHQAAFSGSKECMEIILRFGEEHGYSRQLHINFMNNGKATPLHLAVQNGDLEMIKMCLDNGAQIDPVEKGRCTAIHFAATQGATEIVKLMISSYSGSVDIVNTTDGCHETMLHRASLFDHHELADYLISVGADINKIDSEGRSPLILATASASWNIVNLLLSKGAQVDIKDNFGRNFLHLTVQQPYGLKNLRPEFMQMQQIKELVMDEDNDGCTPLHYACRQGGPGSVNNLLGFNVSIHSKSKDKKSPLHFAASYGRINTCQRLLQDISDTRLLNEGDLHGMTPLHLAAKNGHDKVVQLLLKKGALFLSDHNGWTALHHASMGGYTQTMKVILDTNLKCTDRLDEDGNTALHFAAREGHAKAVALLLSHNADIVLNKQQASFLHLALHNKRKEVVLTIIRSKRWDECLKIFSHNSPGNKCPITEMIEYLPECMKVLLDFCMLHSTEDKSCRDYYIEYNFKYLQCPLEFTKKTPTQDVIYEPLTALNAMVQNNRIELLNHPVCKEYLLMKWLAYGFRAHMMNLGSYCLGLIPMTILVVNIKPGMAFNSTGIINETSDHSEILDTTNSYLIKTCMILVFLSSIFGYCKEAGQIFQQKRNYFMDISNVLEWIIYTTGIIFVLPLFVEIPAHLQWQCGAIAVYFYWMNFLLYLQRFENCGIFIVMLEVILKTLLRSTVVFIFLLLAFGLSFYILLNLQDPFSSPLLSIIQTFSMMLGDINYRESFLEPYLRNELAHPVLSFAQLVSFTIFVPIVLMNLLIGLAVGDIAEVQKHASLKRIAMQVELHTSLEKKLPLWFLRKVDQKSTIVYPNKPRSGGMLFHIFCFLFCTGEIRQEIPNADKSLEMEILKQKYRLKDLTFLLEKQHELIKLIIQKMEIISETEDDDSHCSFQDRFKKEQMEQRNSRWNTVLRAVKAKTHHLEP

| IC50 [nM] | SMILES |
| --- | --- |
| 270 | O=C(CNS(=O)(=O)c1cc2cc(F)ccc2o1)NCc1cc(-c2ccc(C(F)(F)F)cc2)ncn1 [Example 345, 2-[(5-fluorobenzofuran-2-yl)sulfonylamino]-N-[[6-[4-(trifluoromethyl)phenyl]-pyrimidin-4-yl]methyl]acetamide] |
| 700 | O=C(NCc1cc(-c2ccc(C(F)(F)F)cn2)ccn1)[C@@H]1CCCN1S(=O)(=O)c1cc2ccncc2o1 [Example 346, (2S)-1-furo[2,3-c]pyridin-2-ylsulfonyl-N-[[4-[5-(trifluoromethyl)-2-pyridyl]-2-pyridyl]methyl]pyrrolidine-2-carboxamide] |
| 16 | CC(C)N(CC(=O)NCc1cc(-c2ccc(C(F)(F)F)cn2)ccn1)S(=O)(=O)c1cc2cc(F)ccc2o1 [Example 348, 2-[(5-fluorobenzofuran-2-yl)sulfonyl-isopropyl-amino]-N-[[4-[5-(trifluoromethyl)-2-pyridyl]-2-pyridyl]methyl]acetamide] |
| 43 | O=C(CN(CC1CC1)S(=O)(=O)c1cc2cc(F)ccc2o1)NCc1cc(-c2ccc(C(F)(F)F)cn2)ccn1 [Example 349, 2-[cyclopropylmethyl-(5-fluorobenzofuran-2-yl)sulfonyl-amino]-N-[[4-[5-(trifluoromethyl)-2-pyridyl]-2-pyridyl]methyl]acetamide] |
| 300 | O=C(CN(Cc1ccccn1)S(=O)(=O)c1cc2cc(F)ccc2o1)NCc1cc(-c2ccc(C(F)(F)F)cc2)ncn1 [Example 353, 2-[(5-fluorobenzofuran-2-yl)sulfonyl-(2-pyridylmethyl)-amino]-N-[[6-[4-(trifluoromethyl)-phenyl]pyrimidin-4-yl]methyl]acetamide] |
| 44 | COCCN(CC(=O)NCc1cc(-c2ccc(C(F)(F)F)cc2)ncn1)S(=O)(=O)c1cc2cc(F)ccc2o1 [Example 357, 2-[(5-fluorobenzofuran-2-yl)sulfonyl-(2-methoxyethyl)-amino]-N-[[6-[4-(trifluoromethyl)-phenyl]pyrimidin-4-yl]methyl]acetamide] |
| 7.9 | CC(C)N(CC(=O)NCc1cc(-c2ccc(C(F)(F)F)nc2)ncn1)S(=O)(=O)c1cc2cc(F)ccc2o1 [Example 359, 2-[(5-fluorobenzofuran-2-yl)sulfonyl-isopropyl-amino]-N-[[6-[6-(trifluoromethyl)-3-pyridyl]pyrimidin-4-yl]methyl]acetamide] |
| 10 | CC(C)N(CC(=O)NCc1cc(-c2cnc(C(F)(F)F)nc2)ncn1)S(=O)(=O)c1cc2cc(F)ccc2o1 [Example 360, 2-[(5-fluorobenzofuran-2-yl)sulfonyl-isopropyl-amino]-N-[[6-[2-(trifluoromethyl)pyrimidin-5-yl]pyrimidin-4-yl]methyl]acetamide] |
| 7 | CN(CC(=O)NCc1cc(-c2ccc(OC(F)(F)F)cc2)ncn1)S(=O)(=O)c1cc2cc(F)ccc2o1 [Example 362, 2-[(5-fluorobenzofuran-2-yl)sulfonyl-methyl-amino]-N-[[6-[4-(trifluoromethoxy)-phenyl]pyrimidin-4-yl]methyl]acetamide] |
| 920 | O=C(CNS(=O)(=O)c1cc2cc(F)ccc2o1)NCc1cc(-c2ccc(OC(F)(F)F)cc2)ncn1 [Example 363, 2-[(5-fluorobenzofuran-2-yl)sulfonylamino]-N-[[6-[4-(trifluoromethoxy)phenyl]-pyrimidin-4-yl]methyl]acetamide] |
| 10 | CC(C)N(CC(=O)NCc1cc(-c2ccc(OC(F)(F)F)cc2)ncn1)S(=O)(=O)c1cc2cc(F)ccc2o1 [Example 364, 2-[(5-fluorobenzofuran-2-yl)sulfonyl-isopropyl-amino]-N-[[6-[4-(trifluoromethoxy)-phenyl]pyrimidin-4-yl]methyl]acetamide] |
| 220 | O=C(NCc1cc(-c2ncc(C(F)(F)F)cn2)ccn1)[C@@H]1CCCN1S(=O)(=O)c1cc2cnccc2o1 [Example 365, (2S)-1-furo[3,2-c]pyridin-2-ylsulfonyl-N-[[4-[5-(trifluoromethyl)pyrimidin-2-yl]-2-pyridyl]methyl]pyrrolidine-2-carboxamide] |
| 190 | C[C@H](NS(=O)(=O)c1cc2cnccc2o1)C(=O)NCc1ccnc(-c2ccc(C(F)(F)F)cc2)c1 [Example 366, (2S)-2-(furo[3,2-c]pyridin-2-ylsulfonylamino)-N-[[2-[4-(trifluoromethyl)phenyl]-4-pyridyl]methyl]propanamide] |
| 170 | C[C@H](NS(=O)(=O)c1cc2cnccc2o1)C(=O)NCc1cccc(-c2ccc(C(F)(F)F)cn2)c1 [Example 367, (2S)-2-(furo[3,2-c]pyridin-2-ylsulfonylamino)-N-[[3-[5-(trifluoromethyl)-2-pyridyl]-phenyl]methyl]propanamide] |
| 13 | CC(C)N(CC(=O)NCc1cc(-c2ccc(C(F)(F)F)cc2)ncn1)S(=O)(=O)c1cc2cnccc2o1 [Example 368, 2-[furo[3,2-c]pyridin-2-ylsulfonyl(isopropyl)amino]-N-[[6-[4-(trifluoromethyl)-phenyl]pyrimidin-4-yl]methyl]acetamide] |
| 44 | C[C@H](NS(=O)(=O)c1cc2cnccc2o1)C(=O)NCc1cc(-c2ccc(C(F)(F)F)cc2)nc(N(C)C)n1 [Example 369, (2S)-N-[[2-(dimethylamino)-6-[4-(trifluoromethyl)-phenyl]pyrimidin-4-yl]methyl]-2-(furo[3,2-c]pyridin-2-ylsulfonylamino)propanamide] |
| 73 | C[C@H](NS(=O)(=O)c1cc2cc(F)ccc2o1)C(=O)NCc1cc(-c2ccc(C(F)(F)F)cc2)nc(N(C)C)n1 [Example 370, (2S)-N-[[2-(dimethylamino)-6-[4-(trifluoromethyl)-phenyl]pyrimidin-4-yl]methyl]-2-[(5-fluorobenzofuran-2-yl)sulfonylamino]propanamide] |
| 10 | CN(C)c1nc(CNC(=O)[C@@H]2CCCN2S(=O)(=O)c2cc3ccccc3o2)cc(-c2ccc(C(F)(F)F)nc2)n1 [Example 371, (2S)-1-(benzofuran-2-ylsulfonyl)-N-[[2-(dimethylamino)-6-[6-(trifluoromethyl)-3-pyridyl]pyrimidin-4-yl]methyl]pyrrolidine-2-carboxamide] |
| 27 | C[C@H](NS(=O)(=O)c1cc2cc(F)ccc2o1)C(=O)NCc1cc(-c2ccc(C(F)(F)F)nc2)nc(N(C)C)n1 [Example 372, (2S)-N-[[2-(dimethylamino)-6-[6-(trifluoromethyl)-3-pyridyl]pyrimidin-4-yl]methyl]-2-[(5-fluorobenzofuran-2-yl)sulfonylamino]propanamide] |
| 79 | C[C@H](NS(=O)(=O)c1cc2cnccc2o1)C(=O)NCc1ccc(O)c(-c2ccc(C(F)(F)F)cn2)c1 [Example 373, (2S)-2-(furo[3,2-c]pyridin-2-ylsulfonylamino)-N-[[4-hydroxy-3-[5-(trifluoromethyl)-2-pyridyl]-phenyl]methyl]propanamide] |
| 15 | CC(C)N(CC(=O)NCc1ccc(O)c(-c2ccc(C(F)(F)F)cn2)c1)S(=O)(=O)c1cc2cnccc2o1 [Example 374, 2-[furo[3,2-c]pyridin-2-ylsulfonyl(isopropyl)amino]-N-[[4-hydroxy-3-[5-(trifluoromethyl)-2-pyridyl]-phenyl]methyl]acetamide] |
| 13 | CN(C)c1nc(CNC(=O)[C@@H]2CCCN2S(=O)(=O)c2cc3cnccc3o2)cc(-c2ccc(C(F)(F)F)cc2)n1 [Example 375, (2S)-N-[[2-(dimethylamino)-6-[4-(trifluoromethyl)phenyl]-pyrimidin-4-yl]methyl]-1-furo[3,2-c]pyridin-2-ylsulfonyl-pyrrolidine-2-carboxamide] |
| 21 | CN(C)c1nc(CNC(=O)[C@@H]2CCCN2S(=O)(=O)c2cc3ccccc3o2)cc(-c2ccc(C(F)(F)F)cc2O)n1 [Example 376, (2S)-1-(benzofuran-2-ylsulfonyl)-N-[[2-(dimethylamino)-6-[2-hydroxy-4-(trifluoromethyl)phenyl]-pyrimidin-4-yl]methyl]pyrrolidine-2-carboxamide] |
| 110 | C[C@H](NS(=O)(=O)c1cc2cc(F)ccc2o1)C(=O)NCc1cc(-c2ccc(C(F)(F)F)cc2O)nc(N(C)C)n1 [Example 377, (2S)-N-[[2-(dimethylamino)-6-[2-hydroxy-4-(trifluoromethyl)phenyl]-pyrimidin-4-yl]methyl]-2-[(5-fluorobenzofuran-2-yl)sulfonylamino]propanamide] |
